Assay results reported in publication PMC8253220, “Molecular design, synthesis and in vitro biological evaluation of thienopyrimidine–hydroxamic acids as chimeric kinase HDAC inhibitors: a challenging approach to combat cancer” (Journal of Enzyme Inhibition and Medicinal Chemistry, 2021).
Values joined by “and” are separate entries in the source; they are usually repeats but may differ in a detail not shown here. Identical values can stand only once.

Assays:
Experiment in all cases: NCI one-dose screen
Format in all cases: cell-based, human
786-0 = details: Renal 786-0, 10 µM single dose
Procedure, shortened: (§1)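 At 10 μM, a single concentration, compounds were evaluated for antiproliferative effect in the NCI 60-line screen, with growth expressed relative to untreated control cells.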

A549/ATCC = details: NSCLC A549/ATCC, 10 µM single dose
Procedure, shortened: as §1

CAKI-1 = details: Renal CAKI-1, 10 µM single dose
Procedure, shortened: as §1

CCRF-CEM = details: Leukemia CCRF-CEM, 10 µM single dose
Procedure, shortened: as §1

COLO 205 = details: Colon COLO 205, 10 µM single dose
Procedure, shortened: as §1

DU-145 = details: Prostate DU-145, 10 µM single dose
Procedure, shortened: as §1

EKVX = details: NSCLC EKVX, 10 µM single dose
Procedure, shortened: (§2)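 Following the standard NCI-60 protocol, compounds were applied once at 10 μM to all 60 cancer lines. Read-out is percent growth versus untreated controls, expressed as inhibition %.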

HCC-2998 = details: Colon HCC-2998, 10 µM single dose
Procedure, shortened: as §1

HCT-116 = details: Colon HCT-116, 10 µM single dose
Procedure, shortened: as §1

HL-60(TB) = details: Leukemia HL-60(TB), 10 µM single dose
Procedure, shortened: as §1

HOP-62 = details: NSCLC HOP-62, 10 µM single dose
Procedure, shortened: (§3)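 Compounds were tested at a single dose of 10 μM across the full NCI-60 cell line panel. Growth was expressed as percent growth relative to untreated control cells, reported as percent inhibition.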

HS 578T = details: Breast HS 578T, 10 µM single dose
Procedure, shortened: as §1

HT29 = details: Colon HT29, 10 µM single dose
Procedure, shortened: as §1

IGROV1 = details: Ovarian IGROV1, 10 µM single dose
Procedure, shortened: as §1

LOX IMVI = details: Melanoma LOX IMVI, 10 µM single dose
Procedure, shortened: as §1

M14 = details: Melanoma M14, 10 µM single dose
Procedure, shortened: as §1

MALME-3M = details: Melanoma MALME-3M, 10 µM single dose
Procedure, shortened: as §1

MDA-MB-435 = details: Melanoma MDA-MB-435, 10 µM single dose
Procedure, shortened: as §1

NCI-H226 = details: NSCLC NCI-H226, 10 µM single dose
Procedure, shortened: as §2

NCI-H322M = details: NSCLC NCI-H322M, 10 µM single dose
Procedure, shortened: as §1

NCI-H522 = details: NSCLC NCI-H522, 10 µM single dose
Procedure, shortened: as §2

OVCAR-4 = details: Ovarian OVCAR-4, 10 µM single dose
Procedure, shortened: as §1

OVCAR-5 = details: Ovarian OVCAR-5, 10 µM single dose
Procedure, shortened: as §1

RPMI-8226 = details: Leukemia RPMI-8226, 10 µM single dose
Procedure, shortened: as §1

RXF 393 = details: Renal RXF 393, 10 µM single dose
Procedure, shortened: as §1

SF-268 = details: CNS SF-268, 10 µM single dose
Procedure, shortened: (§4)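 Single 10 μM dose, NCI-60 panel; read-out = % growth vs untreated controls → % inhibition.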

SF-539 = details: CNS SF-539, 10 µM single dose
Procedure, shortened: as §4

SK-MEL-2 = details: Melanoma SK-MEL-2, 10 µM single dose
Procedure, shortened: as §3

SK-MEL-5 = details: Melanoma SK-MEL-5, 10 µM single dose
Procedure, shortened: as §1

SK-OV-3 = details: Ovarian SK-OV-3, 10 µM single dose
Procedure, shortened: as §1

SN12C = details: Renal SN12C, 10 µM single dose
Procedure, shortened: as §1

SNB-19 = details: CNS SNB-19, 10 µM single dose
Procedure, shortened: as §3

SNB-75 = details: CNS SNB-75, 10 µM single dose
Procedure, shortened: as §2

SR = details: Leukemia SR, 10 µM single dose
Procedure, shortened: as §1

SW-620 = details: Colon SW-620, 10 µM single dose
Procedure, shortened: as §2

TK-10 = details: Renal TK-10, 10 µM single dose
Procedure, shortened: as §1

UO-31 = details: Renal UO-31, 10 µM single dose
Procedure, shortened: as §2

Row | SMILES | Growth Percent (786-0) | Growth Percent (A549/ATCC) | Growth Percent (CAKI-1) | Growth Percent (CCRF-CEM) | Growth Percent (COLO 205) | Growth Percent (DU-145) | Growth Percent (EKVX) | Growth Percent (HCC-2998) | Growth Percent (HCT-116) | Growth Percent (HL-60(TB)) | Growth Percent (HOP-62) | Growth Percent (HS 578T) | Growth Percent (HT29) | Growth Percent (IGROV1) | Growth Percent (LOX IMVI) | Growth Percent (M14) | Growth Percent (MALME-3M) | Growth Percent (MDA-MB-435) | Growth Percent (NCI-H226) | Growth Percent (NCI-H322M) | other results
1 | Cc1c(C(=O)NCCC(=O)NO)sc2ncnc(Nc3ccc(NC(=O)Nc4cccc(C(F)(F)F)c4)cc3)c12 [Compound 11c, 1–(4-(6-((3-(hydroxyamino)-3-oxopropyl)carbamoyl)-5-methylthieno[2,3-d]pyrimidin-4-ylamino)phenyl)-3–(3-(trifluoromethyl)phenyl)urea] | 115.6% and 115.64% | 103.7% and 103.74% | 99.3% and 99.31% | 98.8% and 98.82% | 112.9% | 105.3% and 105.34% | 90.7% and 90.76% | 111.5% and 111.56% | 107.9% and 107.91% | 105.0% and 105.04% | 101.7% | 93.51% | 109.8% and 109.85% | 102.2% and 102.29% | 94.5% and 94.53% | 107.0% and 107.01% | 112.1% and 112.11% | 103.1% and 103.18% | 97.9% | 103.7% and 103.74% | Growth Percent (NCI-H522): 94.3% and 94.36%; Growth Percent (OVCAR-4): 105.0% and 105.02%; Growth Percent (OVCAR-5): 104.4% and 104.48%; Growth Percent (RPMI-8226): 102.2% and 102.26%; Growth Percent (RXF 393): 103.8% and 103.88%; Growth Percent (SF-268): 93.3% and 93.37%; Growth Percent (SF-539): 78.9% and 78.96%; Growth Percent (SK-MEL-2): 108.7% and 108.73%; Growth Percent (SK-MEL-5): 97.1% and 97.12%; Growth Percent (SK-OV-3): 115.3% and 115.32%; Growth Percent (SN12C): 100.0% and 100.06%; Growth Percent (SNB-19): 93.6% and 93.62%; Growth Percent (SNB-75): 78.8%; Growth Percent (SR): 101.0% and 101.07%; Growth Percent (SW-620): 104.3% and 104.35%; Growth Percent (TK-10): 140.4% and 140.42%; Growth Percent (UO-31): 87.0% and 87.09%
2 | Cc1c(C(=O)NCCCC(=O)NO)sc2ncnc(Nc3ccc(NC(=O)Nc4ccccc4)cc3)c12 [Compound 12a, 1–(4-(6-((4-(hydroxyamino)-4-oxobutyl)carbamoyl)-5-methylthieno[2,3-d]pyrimidin-4-ylamino)phenyl)-3-phenylurea] | 102.3% and 102.37% | 99.6% and 99.69% | 92.8% and 92.88% | 107.0% and 107.09% | 111.9% and 111.95% | 108.5% and 108.51% | 93.22% | 102.1% and 102.15% | 99.5% | 101.4% and 101.44% | 100.0% and 100.08% | 106.3% and 106.34% | 104.7% and 104.74% | 99.0% and 99.07% | 93.57% | 99.0% and 99.09% | 104.5% and 104.57% | 101.8% and 101.82% | 93.3% and 93.35% | 99.7% and 99.76% | Growth Percent (NCI-H522): 87.7% and 87.71%; Growth Percent (OVCAR-4): 100.6%; Growth Percent (OVCAR-5): 105.1% and 105.14%; Growth Percent (RPMI-8226): 110.5% and 110.53%; Growth Percent (RXF 393): 100.1% and 100.13%; Growth Percent (SF-268): 92.5% and 92.51%; Growth Percent (SF-539): 96.5% and 96.54%; Growth Percent (SK-MEL-2): 113.3% and 113.39%; Growth Percent (SK-MEL-5): 97.8% and 97.81%; Growth Percent (SK-OV-3): 121.6% and 121.69%; Growth Percent (SN12C): 99.0% and 99.09%; Growth Percent (SNB-19): 97.1% and 97.12%; Growth Percent (SNB-75): 78.1% and 78.17%; Growth Percent (SR): 105.3% and 105.35%; Growth Percent (SW-620): 103.3% and 103.39%; Growth Percent (TK-10): 111.3% and 111.37%; Growth Percent (UO-31): 75.3% and 75.33%
